Data set [1] has as its system cyclin B1. In words: Western blot of cyclin B1 in THP-1 cells. In kind it is cell-based, human. The following applies: THP-1, 24 h. As to the method:
(§1) Additionally, the cell cycle analysis allows determining the presence of a subdiploid cell population as a characteristic marker of cells with fractional DNA content. A significant increase (p < 0.001) of the sub-G1 peak was found only after the treatment with 5 µM of compound 2 in THP-1 cells, where an approximately eight-fold increase was observed compared to the drug-free control (Figure 4).
(§2) For Western blotting, cells were washed with PBS and lysed in lysis buffer (100 mM Tris-HCl, pH = 6.8; 20% glycerol; 1% SDS) containing protease and phosphatase inhibitor cocktails. Protein concentration was measured using Roti®-Quant universal (Carl Roth, Karsruhe, Germany) according to the manufacturer’s instructions. Cell lysates were supplemented with bromophenol blue (final concentration 0.01% (w/v)) and β-mercaptoethanol (final concentration 1% (v/v)) prior to being heated for 5 min at 95 °C. Equal amounts of protein (10 μg) were loaded into a 12% polyacrylamide gel, separated by SDS-polyacrylamide gel electrophoresis and subsequently electrotransferred onto nitrocellulose membranes. Reversible Ponceau S. staining was performed to assess equal sample loading. […] The intensity of bands was semi-quantitatively analysed using the ImageJ software (National Institute of Mental Health, Bethesda, MD, USA).
A general note: Immunoblotting shows a protein as a band on a membrane.

For data set [2], the system named is cyclin E1. In words: Western blot of cyclin E1 in MCF-7 cells. In kind it is cell-based, human. The settings on record: MCF-7, 24 h. As to the method:
as §1, §2

For data set [3], the system named is THP-1 cells. In words: Erythrosin B dye exclusion viability test, THP-1. In kind it is cell-based. As to the method: (§3) Subsequently, for the comparison of the antiproliferative and cytotoxic effects we assessed the cell viability after 24 h treatment with compounds 1–6 in both tumour cell lines using the dye exclusion test.
(§4) THP-1 human monocytic leukemia cell line, MCF-7 human breast adenocarcinoma cells and 3T3-L1 mouse embryonic fibroblast were purchased from the European Collection of Cell Cultures (ECACC, Salisbury, UK). Cells were routinely tested for the absence of mycoplasma (Hoechst 33258 staining method). THP-1 cells were maintained in RPMI 1640 culture medium containing 2 mM L-glutamine; MCF-7 and 3T3-L1 cells were cultured in DMEM medium. All of the culture media were supplemented with 10% heat-inactivated FBS and antibiotics (100 U/mL penicillin and 100 μg/mL streptomycin). Cells were maintained at 37 °C in a humidified atmosphere containing 5% CO2.
(§5) Cell proliferation was evaluated using Cell Proliferation Reagent WST-1 (2-(4-iodophenyl)-3-(4-nitrophenyl)-5-(2,4-disulfophenyl)-2H-tetrazolium) (Roche Diagnostics, Mannheim, Germany) according to the manufacturer´s instructions. THP-1 (5 × 10^4 cells/100 μL culture medium per well), MCF-7 cells (1 × 10^4 cells/100 μL per well), and 3T3-L1 (2.5 × 10^3 cells/100 μL per well) were cultured in 96-well plates in triplicate. The measurement was performed using Synergy 2 Multi-Mode Microplate Reader (BioTek, Winooski, VT, USA) after 24 h incubation of cells with tested compounds dissolved in DMSO and subsequently in RPMI 1640 to final concentration ranging 0.5–20 μM in the assays. Cell viability was assessed by dye exclusion test. THP-1 (2 × 10^5 cells/mL per well) and MCF-7 cells (8 × 10^4 cells/mL per well) were incubated in 24-well plates with the indicated concentrations of compounds for 24 h. The number of viable cells was determined using hemocytometer after their staining with a solution of erythrosin B (0.1% erythrosin B (w/v) in PBS). The assays were conducted in triplicate. The IC50 and LC50 values were calculated from fitted concentration-response curves using GraphPad Prism 5.00 software (GraphPad Software, San Diego, CA, USA).

A short description of data set [4]: Erythrosin B dye exclusion viability test, THP-1. The settings on record: human, THP-1 cells; erythrosin B exclusion test, 24 h, mean ± SD; read-out: THP-1 LC50. In kind it is cell-based. As to the method:
as §3, §4, §5

The subject of data set [5] is cyclin B1. In words: Western blot of cyclin B1 in MCF-7 cells. In kind it is cell-based, human. The following applies: MCF-7, 24 h. As to the method: as §1, §2
In data set [6] the test system is THP-1 cells. The data set can be described thus: WST-1 cell proliferation assay, THP-1. In kind it is cell-based, human. As to the method: (§6) Initially, we examined the effect of six nitro-substituted hydroxynaphthanilides on the proliferation of human leukaemia and breast carcinoma cell lines, using Water Soluble Tetrazolium Salts-1 (WST-1) assay. For such analyses, THP-1 and MCF-7 cells were treated with the compounds at concentrations ranging from 0.5 to 20 μM for 24 h. […] The inhibitory effect of 2 and 6 was statistically significant (p < 0.001) starting from the concentration of 2.5 and 5 μM in THP-1 and MCF-7 cells, respectively. From the concentration-response curves, the IC50 values were determined.
as §4, §5

Data set [7] deals with MCF-7 cells. The data set can be described thus: Erythrosin B dye exclusion viability test, MCF-7. In kind it is cell-based. The settings on record: MCF-7, 24 h, vs control. The protocol:
as §3, §4, §5

The nature of data set [8]: Erythrosin B dye exclusion viability test, MCF-7. In kind it is cell-based. The following applies: human, MCF-7 cells; erythrosin B exclusion test, 24 h, mean ± SD; read-out: MCF-7 LC50. The protocol: as §3, §4, §5
The test system of data set [9] is THP-1 cells. In words: Flow cytometric cell cycle analysis (PI), THP-1. The following applies: THP-1, 24 h. Type of data set: cell-based, human. As to the method: (§7) In order to determine at which stage of the cell cycle these compounds induce cell growth inhibition, flow cytometric analyses of cell cycle profiles in THP-1 and MCF-7 cell lines were performed. […] Therefore, THP-1 and MCF-7 cells were treated for 24 h with the compounds at concentrations of 2.5, 5, and 10 μM, respectively. In general, we detected a qualitatively similar effect on the distribution of cells in cell cycle phases following the treatment with compounds 2 and 6 in both leukaemia and breast carcinoma cells. […] This was in concert with a simultaneous decrease in the number of cells observed in the S phase compared to the drug-free control, while the percentage of cells in the G2/M phase remained unchanged.
(§8) THP-1 and sub-confluent MCF-7 cells were treated and subsequently incubated with indicated concentrations of compounds 2 and 6 for 24 h. After the incubation, cells were washed twice in PBS (pH 7.4), fixed in 70% ethanol and stored at −20 °C overnight. Fixed cells were collected by centrifugation, and supernatant was discarded. The cell pellet was washed twice with PBS and incubated with RNaseA (0.02 mg/mL) and 0.05% (v/v) Triton X-100 in PBS for 30 min at 37 °C. After the nuclei staining with propidium iodide (PI) (0.04 mg/mL), the cell cycle distribution was analysed using a flow cytometer Cell Lab Quanta SC (Beckman Coulter, Brea, CA, USA). The quantification of cell cycle distribution was carried out using software MultiCycle AV (Phoenix Flow System, San Diego, CA, USA). A total number of 2 × 10^4 cells was analysed per sample.
For orientation: In flow cytometry, cells or beads pass a laser one at a time.

The next data set deals with 3T3-L1 cells. In words: WST-1 cell proliferation assay, 3T3-L1 non-tumour cells. In kind it is cell-based, mouse. As to the method: as §4, §5
Data set [10] deals with MCF-7 cells. In words: WST-1 cell proliferation assay, MCF-7. Type of data set: cell-based, human. The protocol:
as §6, §4, §5

In data set [11] the test system is MCF-7 cells. In words: Flow cytometric cell cycle analysis (PI), MCF-7. Type of data set: cell-based, human. The following applies: MCF-7, 24 h. As to the method:
as §7, §8

The subject of data set [12] is cyclin E1. The data set can be described thus: Western blot of cyclin E1 in THP-1 cells. Type of data set: cell-based, human. The settings on record: THP-1, 24 h. As to the method:
as §1
For Western blotting, cells were washed with PBS and lysed in lysis buffer (100 mM Tris-HCl, pH = 6.8; 20% glycerol; 1% SDS) containing protease and phosphatase inhibitor cocktails. Protein concentration was measured using Roti®-Quant universal (Carl Roth, Karsruhe, Germany) according to the manufacturer’s instructions. Cell lysates were supplemented with bromophenol blue (final concentration 0.01% (w/v)) and β-mercaptoethanol (final concentration 1% (v/v)) prior to being heated for 5 min at 95 °C. Equal amounts of protein (10 μg) were loaded into a 12% polyacrylamide gel, separated by SDS-polyacrylamide gel electrophoresis and subsequently electrotransferred onto nitrocellulose membranes. Reversible Ponceau S. staining was performed to assess equal sample loading. Then, the membranes were blocked with 5% non-fat dry milk in TBST (10 mM Tris-HCl pH = 7.5, 150 mM NaCl, 0.1% (v/v) Tween-20) and appropriate primary and secondary antibodies were used for immunodetection. The proteins were visualized by ECL Plus reagent according to the manufacturer’s instructions. The intensity of bands was semi-quantitatively analysed using the ImageJ software (National Institute of Mental Health, Bethesda, MD, USA).

From article PMC5000617, “Antiproliferative and Pro-Apoptotic Effect of Novel Nitro-Substituted Hydroxynaphthanilides on Human Cancer Cell Lines” (International Journal of Molecular Sciences, 2016) come the findings set out here.

For the compound `O=C(Nc1ccc([N+](=O)[O-])cc1)c1c(O)ccc2ccccc12` [Compound 6, 2-hydroxy-N-(4-nitrophenyl)-naphthalene-1-carboxamide], the “total protein levels of cyclin B1” value in the data set with cyclin B1 [1] and in the data set on cyclin B1 [5] was “total protein levels of cyclin B1 were not changed” throughout. Moreover, the “expression of cyclin E1” value in the data set on cyclin E1 [2] and with cyclin E1 [12] was “dose-dependent decrease in expression of cyclin E1” in each case. The “LC50 compared to IC50” value with THP-1 cells [3] is listed as 2–3 fold. For the same compound, the CC50 at 24 h in data set [4] was 9.98 ± 0.349 µM; in [8], over 20 µM. Besides, the IC50 (usually the concentration at which inhibition is half-maximal) was 5.8 ± 0.37 µM with THP-1 cells [6] (Homo sapiens, THP-1, WST-1, 24 h, 0.5-20 μM, mean ± SD); over 20 µM in the data set on 3T3-L1 cells (Mus musculus, 3T3-L1, WST-1, 24 h, non-tumour cells, mean ± SD); 5.23 ± 0.802 µM with MCF-7 cells [10] (Homo sapiens, MCF7, WST-1, 24 h, 0.5-20 μM, mean ± SD). Also, the “effect on cell proliferation” value is “inhibit cell growth in both cell lines in a dose-dependent manner” with THP-1 cells [6] (THP-1, 0.5-20 μM, 24 h); “did not decrease cell growth at any of concentrations used” in the data set on 3T3-L1 cells (3T3-L1, 24 h); “inhibit cell growth in both cell lines in a dose-dependent manner” in the data set on MCF-7 cells [10] (MCF-7, 0.5-20 μM, 24 h). Moreover, the “concentration from which the inhibitory effect on proliferation was statistically significant (p < 0.001)” value was determined as 2.5 µM in the data set with THP-1 cells [6] (THP-1, 24 h) and 5 µM with MCF-7 cells [10] (MCF-7, 24 h). Also, the “effect on cell viability” value with MCF-7 cells [7] is reported as “Neither compound 2 nor 6 reduced cell viability under 50%”. Besides, the “distribution of cells in cell cycle phases” value in the data set with THP-1 cells [9] and in the data set on MCF-7 cells [11] was “induced accumulation of cells in G1 phase” each time. Besides, the “sub-G1 / sub-diploid population” value with THP-1 cells [9] and with MCF-7 cells [11] was “no significant increase of sub-diploid population” in each case. For the same compound, in the data set with cyclin E1 [12], the “levels of cyclin E1 low molecular weight (LMW E1) isoform” value is given as “more pronounced reduction of LMW E1 isoform levels”.
